Measurements published in US10761045B2, “Sensor, sensor system, method of manufacturing sensor, and method of measuring concentration of target substance” (PHC Holdings Corporation, priority 2010, dated 2020).
In brackets after ≈: the same amount, converted by molar mass. Read-outs that look alike come from different tables or passages of the source. One block for each compound: values may come before it.

Assays:
[1] = Redox / oxidation potentials stated in the description; assay type: physicochemical
[2] = Stability test (exposure test) of sensor at 30° C., 80% humidity; conditions: for Sensor stability % change in response current value between before and after 24 hours exposure at 30° C. and 80% humidity: additive in reagent layer, additive conc. 1.0-5.0 mM; for change in the response current value after the exposure test: 24 hours at 30° C., 80% relative humidity
Method: Sensors were manufactured in the same manner as described in section [1-5] using the reagent solutions prepared above. The sensors manufactured were exposed to an environment of high temperature and humidity (30° C., 80% relative humidity) for 24 hours. Response current values of the pre- and post-exposed sensors were measured for a series of glucose solutions of known concentrations.
Sensors were manufactured using fresh reagent solutions having the same compositions as described above. The sensors were subjected to an exposure experiment where they were allowed to stand for 24 hours at 30° C. and 80% humidity. Response current values of non-exposed sensors (i.e., sensors stored under the ambient condition (25° C., 5% humidity) for 24 hours) and the exposed sensors were measured for a series of glucose solutions of known concentrations.

[3] = Cyclic voltammetry of mediators, redox potential vs Ag|AgCl; assay type: physicochemical; conditions: reference Ag|AgCl; for Eox (V): potential at peak oxidation current; for Ered (V): potential at peak reduction current; for EO′ (V) [(Ered + Eox)/2]: redox potential, average of Ered and Eox
Method: Redox potential (EO′) was calculated in the following procedure. Specifically, cyclic voltammetry using Ag|AgCl as the reference electrode was performed under the same conditions as those in Examples to be described later. Redox potential (EO′) was found as an average of the potential value at the peak oxidation current (Eox) and the potential value at the peak reduction current (Ered), i.e., [(Ered+Eox)/2].
Cyclic voltammetry was performed for the resultant reagent solution using the aforementioned sensor electrode. As a reference electrode, a silver/silver chloride (saturated potassium chloride) electrode (hereinafter “Ag|AgCl”) was used. The reference electrode was led to vent hole 61 of the sensor electrode via a salt bridge. A potentiostat was used for measurement. The electrodes and the potentiostat used were those commonly used in electrochemistry. These instruments can be purchased from BAS Inc., for example.
In cyclic voltammetry, a potential applied to the working electrode was swept linearly with respect to time. The sweeping rate was set to 0.1 V/second. First, a first potential was applied to the working electrode, and the electrode potential was swept toward negative potentials from the first potential to a second potential. The electrode potential was then swept back from the second potential to the first potential toward positive potentials. The first and second potentials were 0.2 V and […], respectively, […]

[4] = Solubility in water of mediators; assay type: physicochemical; conditions: for solubility: water
From the text: Solubilities in water of Compounds A, B, H′, I, I′ and J and disodium 9,10-phenanthrenequinone 2,7-disulfonate are given in Table 1.

[5] = Storage stability of reagent solution (response current of sensors made with stored vs fresh reagent solution); assay type: physicochemical
From the text: A sensor having the configuration illustrated in FIG. 1 was manufactured. The detailed procedure will now be described. First, by sputtering palladium, 8 nm-thick conductive layer 3 was deposited on substrate 2 which was 30 mm in length, 7 mm in width and 0.2 mm in thickness and which contained polyethylene terephthalate as its main component. Thereafter, a 0.1 mm-width non-conductive track was formed by laser ablation, to form electrodes 31 to 33. Electrode 31 was designed to function as a working electrode, electrode 32 as a counter electrode, and electrode 33 as a sensing electrode.
Using a microsyringe, 1.2 μL of each reagent solution was applied to form reagent layer 4 in a shape of 2.2 mm diameter-circular. After formation of reagent layer 4, spacer 5 (0.145 mm thick) having a cut-out with a length of 3.4 mm a width of 1.2 mm and cover 6 were sequentially attached to the substrate having the electrodes formed thereon. In this way a sensor was manufactured that has a capillary having a volume of 0.6 μL. […]
Response current values of each sensor were measured using a series of glucose solutions of known concentrations.
By adding as an additive imidazole, histamine, histidine, 2-aminoimidazole, 4,5-bis(hydroxymethyl)imidazole, 1,2,4-triazole, 3-amino-1,2,4-triazole, 4-amino-1,2,4-triazole, 3,5-diamino-1,2,4-triazole, 2-methylimidazole, or 1,2-dimethylimidazole, reagent solutions were prepared that contain the same composition as reagent solution C except the type and concentration of the additive. The concentrations of the additives are as indicated in Tables below and the accompanying drawings.
Further, sensors were manufactured using the same reagent solutions stored at 25° C. and 5% humidity for 24 hours after preparation. […]

[6] = cited from earlier work; for redox potential: coenzymes and phenanthroline quinone, background values

Compound: O=C1C(=O)c2ccccc2-c2ccccc21 [9,10-phenanthrenequinone]
redox potential of exemplary electron acceptors [1]: −180 mV

Compound: Ethyleneamine [reference compound]
Sensor stability % change in response current value between before and after 24 hours exposure at 30° C. and 80% humidity [2]: −77%

Compound: Nc1nc[nH]n1 [3-Amino-1,2,4-triazole]
change in the response current value after the exposure test [2]: relatively small change in the response current value
Sensor stability % change in response current value between before and after 24 hours exposure at 30° C. and 80% humidity [2]: −4%
Reagent solution stability % change in response current value between before and after 24 hours storage at 25° C. [5]: 0%

Compound: NCCCC[C@H](N)C(=O)O [Lysine, reference compound]
Sensor stability % change in response current value between before and after 24 hours exposure at 30° C. and 80% humidity [2]: −31%
Reagent solution stability % change in response current value between before and after 24 hours storage at 25° C. [5]: −20%

Compound: NCCCCN [Butanediamine, reference compound]
Sensor stability % change in response current value between before and after 24 hours exposure at 30° C. and 80% humidity [2]: −51%

Compound: O=C1C(=O)c2cc(S(=O)(=O)[O-])ccc2-c2ccc(S(=O)(=O)[O-])cc21.[Na+].[Na+] [Disodium 9,10-phenanthrenequinone-2,7-disulfonate]
Eox (V) [3]: −0.06 V
Ered (V) [3]: −0.18 V
EO′ (V) [(Ered + Eox)/2] [3]: −0.12 V
Solubility in water [4]: ≥200 mM

Compound: O=C1C(=O)c2cc(S(=O)(=O)[O-])ccc2-c2ccccc21.[Na+] [Sodium 9,10-phenanthrenequinone-2-sulfonate]
Eox (V) [3]: −0.12 V
Ered (V) [3]: −0.18 V
EO′ (V) [(Ered + Eox)/2] [3]: −0.15 V
solubility [4]: 80 mM

Compound: Nc1n[nH]c(N)n1 [3,5-Diamino-1,2,4-triazole]
change in the response current value after the exposure test [2]: relatively small change in the response current value
Sensor stability % change in response current value between before and after 24 hours exposure at 30° C. and 80% humidity [2]: −2%
Reagent solution stability % change in response current value between before and after 24 hours storage at 25° C. ([5]; additive in reagent solution C composition (PQSA, FAD-GDH), additive conc. 1.0-5.0 mM): −1%

Compound: O=C1C(=O)c2cccnc2-c2ncccc21 [phenanthroline quinone]
redox potential [6]: approximately 0 mV

Compound: Cc1cc2nc3c(=O)[nH]c(=O)nc-3n(C[C@H](O)[C@H](O)[C@H](O)COP(=O)(O)OP(=O)(O)OC[C@H]3O[C@@H](n4cnc5c(N)ncnc54)[C@H](O)[C@@H]3O)c2cc1C [FAD, flavin adenine dinucleotide]
redox potential [6]: approximately −300 mV

Compound: O=C(O)c1cc(C(=O)O)c2c(n1)C(=O)C(=O)c1cc(C(=O)O)[nH]c1-2 [PQQ, pyrroloquinoline quinone]
redox potential [6]: approximately −200 mV

Compound: O=C1C(=O)c2cc(S(=O)(=O)O)ccc2-c2ccccc21 [9,10-phenanthrenequinone-2-sulfonic acid]
redox potential of exemplary electron acceptors [1]: −140 mV

Compound: c1nc[nH]n1 [1,2,4-Triazole]
change in the response current value after the exposure test [2]: relatively small change in the response current value
Sensor stability % change in response current value between before and after 24 hours exposure at 30° C. and 80% humidity [2]: −14%
Reagent solution stability % change in response current value between before and after 24 hours storage at 25° C. [5]: −12%

Compound: O=C1O[C@H]([C@@H](O)CO)C(O)=C1O [ascorbic acid]
oxidation potential ([6]; interfering substance, background value): approximately −140 mV

The next lines start with results.

Eox (V) [3]: −0.14 V
Ered (V) [3]: −0.22 V
EO′ (V) [(Ered + Eox)/2] [3]: −0.18 V
solubility ([4]; read-out: Solubility in water): 5 mM
Compound: O=C([O-])c1ccc(-c2ccc3c(c2)C(=O)C(=O)c2ccccc2-3)cc1.[Na+] [Compound I]

Sensor stability % change in response current value between before and after 24 hours exposure at 30° C. and 80% humidity [2]: −44%
Reagent solution stability % change in response current value between before and after 24 hours storage at 25° C. [5]: 2%
Compound: Cc1nccn1C [1,2-Dimethylimidazole]

Sensor stability % change in response current value between before and after 24 hours exposure at 30° C. and 80% humidity [2]: −12%
Reagent solution stability % change in response current value between before and after 24 hours storage at 25° C. [5]: −7%
Compound: N[C@@H](Cc1c[nH]cn1)C(=O)O [Histidine]
change in the response current value after the exposure test [2]: relatively small change in the response current value

Sensor stability % change in response current value between before and after 24 hours exposure at 30° C. and 80% humidity [2]: −7%
Reagent solution stability % change in response current value between before and after 24 hours storage at 25° C. [5]: −6%
Compound: Nc1ncc[nH]1 [2-Aminoimidazole]
change in the response current value after the exposure test [2]: relatively small change in the response current value

Sensor stability % change in response current value between before and after 24 hours exposure at 30° C. and 80% humidity [2]: −11%
Reagent solution stability % change in response current value between before and after 24 hours storage at 25° C. [5]: −14%
Compound: OCc1nc[nH]c1CO [4,5-Bis(hydroxymethyl) imidazole, 4,5-bis(hydroxymethyl)imidazole]
change in the response current value after the exposure test [2]: relatively small change in the response current value

Eox (V) [3]: −0.14 V
Ered (V) [3]: −0.22 V
EO′ (V) [(Ered + Eox)/2] [3]: −0.18 V
solubility ([4]; read-out: Solubility in water): 20 mM
Compound: O=C(NCCS(=O)(=O)[O-])c1ccc(-c2ccc3c(c2)C(=O)C(=O)c2ccccc2-3)cc1.[Na+] [Compound I′]

Sensor stability % change in response current value between before and after 24 hours exposure at 30° C. and 80% humidity [2]: −12%
Reagent solution stability % change in response current value between before and after 24 hours storage at 25° C. [5]: −25%
Compound: N=C(N)NCCC[C@H](N)C(=O)O [Arginine, reference compound]

Eox (V) [3]: −0.14 V
Ered (V) [3]: −0.21 V
EO′ (V) [(Ered + Eox)/2] [3]: −0.18 V
solubility ([4]; read-out: Solubility in water): 20 mM
Compound: O=C1C(=O)c2cc(-c3ccc(S(=O)(=O)[O-])cc3)ccc2-c2ccccc21.[Na+] [Compound H′]

Eox (V) [3]: −0.19 V
Ered (V) [3]: −0.23 V
EO′ (V) [(Ered + Eox)/2] [3]: −0.21 V
solubility ([4]; read-out: Solubility in water): 1 mM (≈ 223 µg/mL)
Compound: Nc1ccc2c(c1)C(=O)C(=O)c1ccccc1-2 [Compound B]

Sensor stability % change in response current value between before and after 24 hours exposure at 30° C. and 80% humidity [2]: −45%
Reagent solution stability % change in response current value between before and after 24 hours storage at 25° C. [5]: −3%
Compound: NCCN [Ethylenediamine, reference compound]

Eox (V) [3]: −0.10 V
Ered (V) [3]: −0.13 V
EO′ (V) [(Ered + Eox)/2] [3]: −0.12 V
solubility ([4]; read-out: Solubility in water): 1 mM (≈ 253 µg/mL)
Compound: O=C1C(=O)c2cc([N+](=O)[O-])ccc2-c2ccccc21 [Compound A]

Sensor stability % change in response current value between before and after 24 hours exposure at 30° C. and 80% humidity [2]: −3%
Reagent solution stability % change in response current value between before and after 24 hours storage at 25° C. [5]: −2%
Compound: NCCc1c[nH]cn1 [Histamine]
change in the response current value after the exposure test [2]: relatively small change in the response current value

redox potential of exemplary electron acceptors [1]: −16 mV
Compound: O=C1C=C(S(=O)(=O)O)c2ccccc2C1=O [1,2-naphthoquinone-4-sulfonic acid]

Sensor stability % change in response current value between before and after 24 hours exposure at 30° C. and 80% humidity [2]: −44%
Reagent solution stability % change in response current value between before and after 24 hours storage at 25° C. [5]: 1%
Compound: Cc1ncc[nH]1 [2-Methylimidazle, 2-methylimidazole]

Eox (V) [3]: −0.15 V
Ered (V) [3]: −0.23 V
EO′ (V) [(Ered + Eox)/2] [3]: −0.19 V
solubility ([4]; read-out: Solubility in water): 50 mM
Compound: O=C([O-])c1cc(C(=O)[O-])cc(-c2ccc3c(c2)C(=O)C(=O)c2ccccc2-3)c1.[Na+].[Na+] [Compound J]

Sensor stability % change in response current value between before and after 24 hours exposure at 30° C. and 80% humidity [2]: −4%
Reagent solution stability % change in response current value between before and after 24 hours storage at 25° C. [5]: −6%
Compound: Nn1cnnc1 [4-Amino-1,2,4-triazole]
change in the response current value after the exposure test [2]: relatively small change in the response current value
